Measured values: patent US9944596B2, “Heterocyclic compound” (TAKEDA PHARMACEUTICAL COMPANY LIMITED, priority 2014, dated 2018)

Columns and labels:
RBP4 = target: T1, RBP4 (Mus musculus, UniProt Q00724); assay: Blood RBP4-lowering action in C57BL/6J mouse (plasma RBP4 by ELISA); type: in vivo; conditions: male C57BL/6J mice, mean±SD, n=4 or 5; for RBP4 (initial value/control value %) 8 hr later: plasma 8 hr after administration
T1 construct: from tissue; host or cells: plasma of male C57BL/6J mice (Japan Charles River)
Description: The blood RBP4-lowering action of the compound of the present invention was evaluated using C57BL/6J mouse.
Male 7- to 10-week-old C57BL/6J mice (Japan Charles River) were acclimation reared under free food ingestion conditions on CE-2 solid feed (CLEA Japan, Inc.) for 4 to 6 days, and randomly grouped (4 or 5 per group). On the day of the test, blood samples were collected from the tail vein, and plasma was separated (0 hr value). Thereafter, a test compound (Example 1, 4, 5, 6 or 7) was orally administered at a dose of 5 mg/kg (solvent: 0.5% methylcellulose solution (10 mL/kg)). At 8 hr after the compound was administered, blood samples were collected from the tail vein and plasma was separated. Immediately after the blood samples were collected, the test compound was orally administered again at a dose of 5 mg/kg, and blood samples were collected again at 24 hr after the initial administration. In Examples 2, 3 and 8, the initial administration alone was performed at a dose of 10 mg/kg. The daily dose of all the test compounds was set to 10 mg/kg. A 0.5% methylcellulose solution (10 mL/kg) was orally administered to the control group.
The amount of RBP4 in the collected plasma was measured by the ELISA method. Using rabbit anti-mouse RBP4 polyclonal antibody (Hokudo Co., Ltd.), RBP4 was quantified by the following process. A 96 well ELISA plate was coated with 50 μg/mL antibody (100 μL), and stood at 4° C. overnight or at room temperature for 2 hr. After blocking with BlockAce (Dainippon Pharmaceutical Co., Ltd.), 100 μL of mouse RBP4 or sample was added and the plate was stood at room temperature for 2 hr, washed with PBS-0.5% Tween20, added with HRP-labeled anti-RBP4 antibody (prepared by labeling RBP4 polyclonal antibody (Hokudo Co., Ltd.) with HRP (DOJINDO LABORATORIES)) (100 μL), and stood at room temperature for 1 hr. After washing, TMB (Sigma) was added at room temperature for 20 min to allow for color development. The reaction was quenched with 2N sulfuric acid and the absorbance at A450 nm was measured by a platereader. Variation from the initial value of each individual was taken as the relative value to the control group (initial value/control value, %) at each time point. The results are shown below in mean±standard deviation (n=4 or 5).

human RBP4 = target: T2, human RBP4 (Homo sapiens, UniProt P02753); assay: Binding assay by Retinol-RBP4-TTR ELISA; conditions: compound 10 μM; retinol 50 nM; His-tagged human RBP4, biotinylated human TTR; read-out: human RBP4 binding inhibitory activity (% at 10 μM)
T2 construct: the culture supernatant containing secreted hRBP4-His was recovered; made in house; host or cells: FreeStyle 293 expression system (Invitrogen)
Description: Using the Retinol-RBP4-TTR ELISA system shown below, the action of the compound of the present invention to inhibit the binding of RBP4 and retinol and TTR was evaluated.
1F: Binding Assay by Retinol-RBP4-TTR ELISA
This ELISA system detects a complex with RBP4 and TTR based on the retinol dependent binding of RBP4 to TTR.
The His-tagged human RBP4 used was prepared in the above-mentioned 1C.
The biotinylated human TTR used was prepared in the above-mentioned 1E.
Streptavidin (20 μl) (10 μg/ml Streptavidin type II (Wako Pure Chemical Industries, Ltd.), 10 mM Tris-HCl (pH 7.5), 10 mM NaCl) was added to a 384 well blackplate (Nunc MaxiSorp, Thermo Fisher Scientific Inc.), and the plate was centrifuged (1000 rpm, 1 min) and coated at 4° C. overnight. The plate was washed twice with PBST (PBS, 0.05% Tween 20, 100 μl/well), and blocked with 25% Block Ace (Snow Brand Milk Products Co., Ltd., PBS, 100 μl/well). The plate was subjected to centrifugation (1000 rpm, 1 min), and incubated at room temperature for 4 hr or 4° C. overnight. The plate was washed twice with PBST (PBS, 0.05% Tween 20, 100 μl/well), and biotinylated human TTR (stock solution concentration 1.0 mg/ml) diluted 750-fold with PBST was added at 20 μl/well. The plate was subjected to centrifugation (1000 rpm, 1 min), and further stood at room temperature for 1.5 hr or 4° C. overnight. The plate was washed 3 times with PBST (100 μl/well), and His-tagged human RBP4 (stock solution concentration 1.28 mg/ml) diluted 4000-fold with a reaction buffer (50 mM Tris-HCl, 150 mM NaCl, 0.005% Tween 20, 1 mM DTT, 0.1% BSA) was added at 10 μl/well. The dilution of the compound (200-fold concentration) was prepared with DMSO, and 1.6 μl each was added to a reaction buffer (320 μl) containing retinol (50 nM) (Sigma-Aldrich Co.). A reaction buffer (320 μl) containing retinol and added with DMSO was used as a positive control, and a reaction buffer (320 μl) not containing retinol and added with DMSO was used as a negative control. A mixed solution of retinol and the compound was added to the plate at 15 μl/well. The plate was stirred in a plate mixer, centrifuged (1000 rpm, 1 min), and reacted at room temperature for 2 hr. Anti-His HRP-conjugated antibody (QIAGEN) solution diluted with a reaction buffer was added […], centrifuged (1000 rpm, 1 min), and reacted at room temperature for 30 min. The plate was washed 3 times with PBST (100 μl/well), SuperSignal ELISA Femto Maximum Sensitivity Substrate reagent (PIERCE, Thermo Fisher Scientific Inc.) was added at 30 μl/well, and the luminescence was measured by a plate reader (Envision).
The binding inhibitory activity of the compound was determined by 100×(positive control value−test compound value)/(positive control value−negative control value).

A2E = assay: Suppression of A2E accumulation in the eyeball of ABCA4 KO mouse (HPLC); type: in vivo; conditions: male ABCA4 KO mice, oral 5 mg/kg twice per day for 12 weeks, n=6
Description: The suppressive action for accumulation of retinoid metabolite bis-retinoid N-retinylidene-N-retinylethanolamine (A2E) in the eyeball, of the compound of the present invention, was evaluated using ATP-binding cassette A4 knockout (ABCA4 KO) mouse. A2E is the major constituent component of Lipofuscin in the eyeball, and is involved in the onset and pathology progression in atrophic age-related macular degeneration and Stargardt's disease. ABCA4 KO mouse was confirmed to show remarkable accumulation of A2E, Lipofuscin along with aging, and is known as an animal model of atrophic age-related macular degeneration and Stargardt's disease.
8-Week-old male ABCA4 KO mice were randomly grouped, and 0.5% methylcellulose solution was orally administered to the control group, and 0.5% methylcellulose suspension of a compound at a dose shown in the following Table was orally administered to the test compound group, each twice per day at 10 mL/kg. Each group contained 6 mice. After repetitive administration for 12 weeks, eyeball was isolated under anesthesia.
In the eyeball, A2E was measured by the HPLC method. A2E reference standard was synthesized from all-trans retinal, ethanolamine in acetic acid-added ethanol. […] Quantification was performed at ultraviolet absorbance at 440 nm by PDA.

[1] = oral 5 mg/kg at 0 hr and again at 8 hr (daily dose 10 mg/kg), plasma 24 hr after initial administration
[2] = oral 10 mg/kg initial administration alone
[3] = oral 10 mg/kg initial administration alone, plasma 24 hr after administration

Row | SMILES | RBP4 (initial value/control value %) 24 hr later (RBP4; [1]) [%] | RBP4 (initial value/control value %) 8 hr later (RBP4; oral 5 mg/kg) [%] | inhibition at 10 µM (human RBP4) [%] | RBP4 (initial value/control value %) 8 hr later (RBP4; [2]) [%] | RBP4 (initial value/control value %) 24 hr later (RBP4; [3]) [%] | A2E (% of control value) (A2E) [%]
1 | O=C(O)CC(=O)N1CC[C@H](COc2ccccc2C2CCCCC2)C1 [Example 5, 3-((3S)-3-((2-cyclohexylphenoxy)methyl)pyrrolidin-1-yl)-3-oxopropanoic acid] | 62.83 ± 4.70 | 32.30 ± 1.76 | 100 | – | – | –
2 | O=C(O)CC(=O)N1CC[C@H](COc2ccccc2C2CCC2)C1 [Example 3, 3-((3S)-3-((2-cyclobutylphenoxy)methyl)pyrrolidin-1-yl)-3-oxopropanoic acid] | – | – | 98 | 37.20 ± 3.71 | 95.57 ± 8.55 | –
3 | O=C(O)CC(=O)N1CC[C@H](COc2ccccc2C2(C(F)(F)F)CC2)C1 [Example 1, 3-oxo-3-((3S)-3-((2-(1-(trifluoromethyl)cyclopropyl)phenoxy)methyl)pyrrolidin-1-yl)propanoic acid] | 28.49 ± 5.16 | 30.02 ± 6.85 | 100 | – | – | –
4 | CC1(c2ccccc2OC[C@H]2CCN(C(=O)CC(=O)O)C2)CC1 [Example 2, 3-((3S)-3-((2-(1-methylcyclopropyl)phenoxy)methyl)pyrrolidin-1-yl)-3-oxopropanoic acid] | – | – | 98 | 11.82 ± 3.24 | 36.40 ± 12.19 | –
5 | CCOC(=O)CC(=O)N1CC[C@H](COc2ccccc2C2(C(F)(F)F)CC2)C1 [Example 8, ethyl 3-oxo-3-((3S)-3-((2-(1-(trifluoromethyl)cyclopropyl)phenoxy)methyl)pyrrolidin-1-yl)propanoate] | – | – | – | 77.35 ± 7.08 | 92.76 ± 6.81 | –

Continued, in another order:

Row | RBP4 (initial value/control value %) 24 hr later (RBP4; [1]) [%] | RBP4 (initial value/control value %) 8 hr later (RBP4; oral 5 mg/kg) [%] | inhibition at 10 µM (human RBP4) [%] | RBP4 (initial value/control value %) 8 hr later (RBP4; [2]) [%] | RBP4 (initial value/control value %) 24 hr later (RBP4; [3]) [%] | SMILES | A2E (% of control value) (A2E) [%]
6 | 53.72 ± 6.97 | 33.90 ± 6.60 | 100 | – | – | O=C(O)CC(=O)N1CCC(COc2ccccc2C2CCCC2)C1 (stereo not drawn) [Example 7, 3-(3-((2-cyclopentylphenoxy)methyl)pyrrolidin-1-yl)-3-oxopropanoic acid] | –
7 | 41.90 ± 20.25 | 41.42 ± 13.96 | 100 | – | – | O=C(O)CC(=O)N1CC[C@@H](COc2ccccc2C2CCCC2)C1 [Example 6, 3-((3R)-3-((2-cyclopentylphenoxy)methyl)pyrrolidin-1-yl)-3-oxopropanoic acid] | –
8 | 56.02 ± 9.72 | 29.93 ± 6.80 | 100 | – | – | O=C(O)CC(=O)N1CC[C@H](COc2ccccc2C2CCCC2)C1 [Example 4, 3-((3S)-3-((2-cyclopentylphenoxy)methyl)pyrrolidin-1-yl)-3-oxopropanoic acid] | 53.94 ± 15.16
